From US20240158446A1, “CYCLIC COMPOUND HAVING SELECTIVE INHIBITORY ACTION ON KRAS OVER HRAS AND NRAS” (CHUGAI SEIYAKU KABUSHIKI KAISHA, priority 2021, published 2024)
pKd: −log10 of the molar value. Where a SMILES comes first, the peptide text is derived from it. Bridges are numbered along the chain shown (N, C = ends). [ ]: non-standard residue; d: D form. hPhe(3-Cl-4-CF3) = N[C@@H](CCc1ccc(C(F)(F)F)c(Cl)c1)C(=O)O; NPrPhe(4-CF3) = CCCN[C@@H](Cc1ccc(C(F)(F)F)cc1)C(=O)O; NMeGly(cPent) = CN[C@H](C(=O)O)C1CCCC1; Pro(4,4-F2) = O=C(O)[C@@H]1CC(F)(F)CN1; Hyp = O=C(O)[C@@H]1C[C@@H](O)CN1; NMeL = CN[C@@H](CC(C)C)C(=O)O; Ac5c = NC1(C(=O)O)CCCC1; Aze = O=C(O)[C@@H]1CCN1; Ac4c = NC1(C(=O)O)CCC1; NEtG = CCNCC(=O)O; Sar = CNCC(=O)O

Key:
[1] = biological target: GDP-bound KRAS wild-type protein (Homo sapiens, UniProt P01116); experiment: Binding to KRAS by surface plasmon resonance (SPR), Single Cycle Kinetics; settings: SPR Single Cycle Kinetics, GDP-bound KRAS wild-type protein, 1:1 binding model; read-out: KRAS KD
[2] = biological target: GDP-bound HRAS wild-type protein (Homo sapiens, UniProt P01112); experiment: Binding to HRAS by surface plasmon resonance (SPR), Single Cycle Kinetics; settings: SPR, GDP-bound HRAS wild-type protein vs GDP-bound KRAS wild-type protein
[3] = biological target: GDP-bound NRAS wild-type protein (Homo sapiens, UniProt P01111); experiment: Binding to NRAS by surface plasmon resonance (SPR), Single Cycle Kinetics; settings: SPR, GDP-bound NRAS wild-type protein vs GDP-bound KRAS wild-type protein
GDP-bound NRAS wild-type protein, sequence (P01111 whole entry): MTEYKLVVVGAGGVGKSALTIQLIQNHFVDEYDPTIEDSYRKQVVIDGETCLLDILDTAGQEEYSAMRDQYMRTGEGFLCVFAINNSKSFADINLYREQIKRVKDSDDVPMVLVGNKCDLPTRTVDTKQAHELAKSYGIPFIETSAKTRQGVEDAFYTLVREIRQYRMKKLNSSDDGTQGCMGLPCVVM

GDP-bound HRAS wild-type protein, sequence (P01112 whole entry): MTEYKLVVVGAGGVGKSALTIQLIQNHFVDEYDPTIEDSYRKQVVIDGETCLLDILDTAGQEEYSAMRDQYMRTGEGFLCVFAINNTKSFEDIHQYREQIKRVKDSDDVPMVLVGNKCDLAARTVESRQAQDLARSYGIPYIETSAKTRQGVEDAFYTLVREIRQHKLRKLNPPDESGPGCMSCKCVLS
GDP-bound KRAS wild-type protein, sequence (P01116 whole entry): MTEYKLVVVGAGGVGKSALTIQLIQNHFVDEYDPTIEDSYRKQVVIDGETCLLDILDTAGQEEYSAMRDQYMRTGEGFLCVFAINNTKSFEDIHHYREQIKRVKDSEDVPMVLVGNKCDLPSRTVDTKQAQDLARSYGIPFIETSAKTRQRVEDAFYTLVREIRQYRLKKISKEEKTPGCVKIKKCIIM

Structure (SMILES)	pKd [1]	HRAS/KRAS (ratio of KD value for HRAS to KD value for KRAS) [2]	NRAS/KRAS (ratio of KD value for NRAS to KD value for KRAS) [3]
CCCN1C(=O)CN(C)C(=O)CN(CC)C(=O)[C@H]([C@@H](C)CC)NC(=O)[C@H](CC(C)C)N(C)C(=O)C[C@@H](C(=O)N(C)C)NC(=O)[C@H](C2CCCC2)N(C)C(=O)C2(CCC2)NC(=O)[C@@H]2C[C@@H](OCC)CN2C(=O)[C@H](CCc2ccc(C(F)(F)F)c(Cl)c2)NC(=O)CN(C)C(=O)[C@@H]1Cc1ccc(C(F)(F)F)cc1 [PP0372] ([NMeL]I[NEtG][Sar][NPrPhe(4-CF3)][Sar][hPhe(3-Cl-4-CF3)][Hyp](Et)[Ac4c][NMeGly(cPent)]D-NMe2; lactam N-11)	9.10	B (a compound having 3 or more and less than 10 is denoted as B)	B (a compound having 3 or more and less than 10 is denoted as B)
CCCN1C(=O)CN(C)C(=O)[C@@H]2CCN2C(=O)[C@H]([C@@H](C)CC)NC(=O)[C@H](CC(C)C)N(C)C(=O)C[C@@H](C(=O)N(C)C)NC(=O)[C@H](C2CCCC2)N(C)C(=O)C2(CCCC2)NC(=O)[C@@H]2CCCN2C(=O)[C@H](CCc2ccc(C(F)(F)F)c(Cl)c2)NC(=O)CN(C)C(=O)[C@@H]1Cc1ccc(C(F)(F)F)cc1 [PP0373] ([NMeL]I[Aze][Sar][NPrPhe(4-CF3)][Sar][hPhe(3-Cl-4-CF3)]P[Ac5c][NMeGly(cPent)]D-NMe2; lactam N-11)	8.92	B (a compound having 3 or more and less than 10 is denoted as B)	B (a compound having 3 or more and less than 10 is denoted as B)
CCCN1C(=O)CN(C)C(=O)[C@@H]2CCN2C(=O)[C@H]([C@@H](C)CC)NC(=O)[C@H](CC(C)C)N(C)C(=O)C[C@@H](C(=O)N(C)C)NC(=O)[C@H](C2CCCC2)N(C)C(=O)C2(CCC2)NC(=O)[C@@H]2CCCN2C(=O)[C@H](CCc2ccc(C(F)(F)F)c(Cl)c2)NC(=O)CN(C)C(=O)[C@@H]1Cc1ccc(C(F)(F)F)cc1 [PP0374] ([NMeL]I[Aze][Sar][NPrPhe(4-CF3)][Sar][hPhe(3-Cl-4-CF3)]P[Ac4c][NMeGly(cPent)]D-NMe2; lactam N-11)	8.74	B (a compound having 3 or more and less than 10 is denoted as B)	B (a compound having 3 or more and less than 10 is denoted as B)
CCCN1C(=O)CN(C)C(=O)[C@@H]2CCN2C(=O)[C@H]([C@@H](C)CC)NC(=O)[C@H](CC(C)C)N(C)C(=O)C[C@@H](C(=O)N(C)C)NC(=O)[C@H](C2CCCC2)N(C)C(=O)C2(CCCC2)NC(=O)[C@@H]2CC(F)(F)CN2C(=O)[C@H](CCc2ccc(C(F)(F)F)c(Cl)c2)NC(=O)CN(C)C(=O)[C@@H]1Cc1ccc(C(F)(F)F)cc1 [PP0375] ([NMeL]I[Aze][Sar][NPrPhe(4-CF3)][Sar][hPhe(3-Cl-4-CF3)][Pro(4,4-F2)][Ac5c][NMeGly(cPent)]D-NMe2; lactam N-11)	8.64	B (a compound having 3 or more and less than 10 is denoted as B)	B (a compound having 3 or more and less than 10 is denoted as B)
CCCN1C(=O)CN(C)C(=O)[C@@H]2CCN2C(=O)[C@H]([C@@H](C)CC)NC(=O)[C@H](CC(C)C)N(C)C(=O)C[C@@H](C(=O)N(C)C)NC(=O)[C@H](C2CCCC2)N(C)C(=O)C2(CCCC2)NC(=O)[C@@H]2C[C@@H](OCC)CN2C(=O)[C@H](CCc2ccc(C(F)(F)F)c(Cl)c2)NC(=O)CN(C)C(=O)[C@@H]1Cc1ccc(C(F)(F)F)cc1 [PP0377] ([NMeL]I[Aze][Sar][NPrPhe(4-CF3)][Sar][hPhe(3-Cl-4-CF3)][Hyp](Et)[Ac5c][NMeGly(cPent)]D-NMe2; lactam N-11)	9.15	C (A compound having a KD ratio of 0.1 or more and less than 3 is denoted as C)	B (a compound having 3 or more and less than 10 is denoted as B)
